Patent US10100045B2, “3-aryl-2H-pyrazolo[4,3-b]pyridine compounds and their use as AMPA receptor modulators” (Janssen Pharmaceutica NV, priority 2016, dated 2018)

Target: GluA1o-γ8 (GRIA1o-CACNG8 fusion construct; TARP γ8 dependent AMPA receptor) (Homo sapiens (Human), UniProt P42261+Q8WXS5)
Experiment: Calcium flux assay (FLIPR), inhibition of glutamate response of GluA1o-γ8 channel
Format: cell-based
Settings: HEK293 cells stably expressing GRIA1o-CACNG8 fusion; 15 μM glutamate; negative log of the IC50 in molar
Description: This assay was used to test compounds for their ability to inhibit TARP γ8 dependent AMPA receptor activity. The AMPA receptor is a non-selective cation channel activated by glutamate. Ionotropic glutamate receptors normally desensitize too rapidly to allow detectable calcium influx in a FLIPR assay (Strange et al. (2006). “Functional characterisation of homomeric ionotropic glutamate receptors GluR1-GluR6 in a fluorescence-based high throughput screening assay.” Comb Chem High Throughput Screen 9(2): 147-158). But, this desensitization is incomplete, and a substantial steady-state current remains in the sustained presence of glutamate (Cho et al. (2007). “Two families of TARP isoforms that have distinct effects on the kinetic properties of AMPA receptors and synaptic currents.” Neuron 55(6): 890-904). An in vitro assay was used to determine the potency of test compounds as inhibitors of the glutamate response of the channel formed by GluA1o-γ8. To ensure a 1:1 stoichiometry of GluA1o and γ8 subunits in the expressed channel, a fusion of the cDNAs for GRIA1o and CACNG8 was used. Following Shi et al (2009) “The stoichiometry of AMPA receptors and TARPs varies by neuronal cell type.” Neuron 62(5): 633-640), the C-terminus of the cDNA for GRIA1o was fused to the N-terminus of the cDNA for γ8. The linker sequence was QQQQQQQQQQEFAT. Channels expressed with this construct appear to have similar properties to channels formed by co-expression of GRIA1o with an excess of CACNG8 (Shi et al. 2009). A clonal cell line in HEK293 cells stably expressing this construct, with a geneticin selection marker, was generated for use in this assay.
Cell expressing the GRIA1o-CACNG8 fusion construct were grown in a monolayer in 96- or 384-well microtiter plates. They were washed with assay buffer (135 mM NaCl, 4 mM KCl, 3 mM CaCl2, 1 mM MgCl2, 5 mM glucose, 10 mM HEPES, pH 7.4, 300 mOs) using a Biotek EL405 plate washer. The cells were then loaded with a calcium-sensitive dye (Calcium-5 or Calcium-6, Molecular Devices) and the test compounds at a range of concentrations. Calcium flux following the addition of 15 μM glutamate was monitored using a Molecular Devices FLIPR Tetra. The fluorescence in each well was normalized to the fluorescence of negative and positive control wells. The negative control wells had no added compounds, and the positive control wells had been incubated with 10 μM CP465022 (a non-subtype-selective AMPA receptor antagonist) (Lazzaro et al. (2002). “Functional characterization of CP-465,022, a selective, noncompetitive AMPA receptor antagonist.” Neuropharmacology 42(2): 143-153). The responses to glutamate as functions of the test compound concentrations were fitted to a four-parameter logistic function. The fitted parameter corresponding to the midpoint was taken to be the potency of inhibition of the compound. The data in Table 3 below illustrates the observed potentcy for the compounds described herein. pIC50 refers to the negative log of the IC50 in molar.

Sequence of GluA1o-γ8 (GRIA1o-CACNG8 fusion construct; TARP γ8 dependent AMPA receptor) (P42261 other isoform, or with tags, fused parts or gaps): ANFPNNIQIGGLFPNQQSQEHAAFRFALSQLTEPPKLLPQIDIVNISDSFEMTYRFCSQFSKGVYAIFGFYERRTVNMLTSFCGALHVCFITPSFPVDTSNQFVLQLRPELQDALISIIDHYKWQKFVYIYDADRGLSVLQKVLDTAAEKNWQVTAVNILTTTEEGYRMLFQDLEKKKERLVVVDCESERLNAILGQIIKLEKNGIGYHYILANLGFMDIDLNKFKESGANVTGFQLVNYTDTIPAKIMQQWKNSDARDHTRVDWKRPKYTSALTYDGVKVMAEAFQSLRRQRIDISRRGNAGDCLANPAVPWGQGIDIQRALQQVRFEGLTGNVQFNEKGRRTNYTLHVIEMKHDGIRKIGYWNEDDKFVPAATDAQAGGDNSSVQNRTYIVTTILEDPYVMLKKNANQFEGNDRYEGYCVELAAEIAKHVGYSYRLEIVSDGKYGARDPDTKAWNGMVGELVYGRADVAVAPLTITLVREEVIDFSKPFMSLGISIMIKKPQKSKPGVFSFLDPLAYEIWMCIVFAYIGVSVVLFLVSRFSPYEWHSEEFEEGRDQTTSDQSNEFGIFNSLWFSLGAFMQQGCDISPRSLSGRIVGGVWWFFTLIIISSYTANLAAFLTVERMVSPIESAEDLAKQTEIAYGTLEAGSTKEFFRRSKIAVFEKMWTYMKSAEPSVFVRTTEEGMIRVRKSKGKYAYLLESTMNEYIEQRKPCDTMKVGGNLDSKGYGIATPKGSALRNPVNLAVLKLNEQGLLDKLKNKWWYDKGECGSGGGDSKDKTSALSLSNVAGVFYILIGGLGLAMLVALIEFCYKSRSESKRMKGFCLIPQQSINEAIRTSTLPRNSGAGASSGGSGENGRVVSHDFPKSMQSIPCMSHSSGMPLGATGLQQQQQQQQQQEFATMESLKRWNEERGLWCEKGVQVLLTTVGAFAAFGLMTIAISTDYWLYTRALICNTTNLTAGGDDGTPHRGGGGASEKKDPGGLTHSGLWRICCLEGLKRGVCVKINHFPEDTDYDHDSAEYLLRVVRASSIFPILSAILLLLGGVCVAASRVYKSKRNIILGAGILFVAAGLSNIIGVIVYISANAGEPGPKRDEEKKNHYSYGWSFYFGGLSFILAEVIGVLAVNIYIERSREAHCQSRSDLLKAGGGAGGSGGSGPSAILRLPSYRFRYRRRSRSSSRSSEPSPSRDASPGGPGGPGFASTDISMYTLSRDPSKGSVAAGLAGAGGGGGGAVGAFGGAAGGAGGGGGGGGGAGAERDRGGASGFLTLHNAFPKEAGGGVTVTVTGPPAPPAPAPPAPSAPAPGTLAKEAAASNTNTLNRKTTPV

In order of rising pIC50:
1. COCCn1nc2ccc(C(F)(F)F)nc2c1-c1ccc2[nH]ncc2c1 [Example 13, 3-(1H-Indazol-5-yl)-2-(2-methoxyethyl)-5-(trifluoromethyl)-2H-pyrazolo[4,3-b]pyridine]  6.1
2. Cn1nc2ccc(C(F)(F)F)nc2c1-c1ccc2[nH]c(=O)[nH]c2c1 [Example 1, 5-(2-Methyl-5-(trifluoromethyl)-2H-pyrazolo[4,3-b]pyridin-3-yl)-1,3-dihydro-2H-benzo[d]imidazol-2-one]  6.5
3. Cc1cc(-c2c3nccc(C(F)F)c3nn2C(C)C)cc2cn[nH]c12 [Example 38, 7-(Difluoromethyl)-2-isopropyl-3-(7-methyl-1H-indazol-5-yl)pyrazolo[4,3-b]pyridine]  6.9
4. O=c1[nH]c2ccc(-c3c4nc(C(F)(F)F)ccc4nn3CC3CCC3)cc2[nH]1 [Example 6, 5-(2-(Cyclobutylmethyl)-5-(trifluoromethyl)-2H-pyrazolo[4,3-b]pyridin-3-yl)-1,3-dihydro-2H-benzo[d]imidazol-2-one]  6.9
5. CCn1nc2ccc(C(F)(F)F)nc2c1-c1ccc2[nH]c(=O)[nH]c2c1 [Example 4, 5-(2-Ethyl-5-(trifluoromethyl)-2H-pyrazolo[4,3-b]pyridin-3-yl)-1,3-dihydro-2H-benzo[d]imidazol-2-one]  7.0
6. CC(C)n1nc2cccnc2c1-c1cc(Cl)c2[nH]ncc2c1 [Example 39, 3-(7-Chloro-1H-indazol-5-yl)-2-isopropyl-pyrazolo[4,3-b]pyridine]  7.2
7. CC(C)n1nc2ccc(C(F)(F)F)nc2c1-c1ccc2[nH]c(=O)[nH]c2c1 [Example 5, 5-(2-Isopropyl-5-(trifluoromethyl)-2H-pyrazolo[4,3-b]pyridin-3-yl)-1,3-dihydro-2H-benzo[d]imidazol-2-one]  7.6
8. Cc1cc(-c2c3nc(C(F)(F)F)ccc3nn2C)cc2c1NC(=O)C2 [Example 2, 7-Methyl-5-(2-methyl-5-(trifluoromethyl)-2H-pyrazolo[4,3-b]pyridin-3-yl)indolin-2-one]  7.9
9. O=C1Cc2cc(-c3c4nc(C(F)(F)F)ccc4nn3-c3ccccc3)ccc2N1 [Example 10, 5-(2-Phenyl-5-(trifluoromethyl)-2H-pyrazolo[4,3-b]pyridin-3-yl)indolin-2-one]  8.2
10. CCn1nc2ccc(C(F)(F)F)nc2c1-c1cc(C)c2c(c1)CC(=O)N2 [Example 17, 5-(2-Ethyl-5-(trifluoromethyl)-2H-pyrazolo[4,3-b]pyridin-3-yl)-7-methylindolin-2-one]  8.3
11. FC(F)(F)c1ccc2nn(-c3ccccc3)c(-c3ccc4[nH]ncc4c3)c2n1 [Example 11, 3-(1H-Indazol-5-yl)-2-phenyl-5-(trifluoromethyl)-2H-pyrazolo[4,3-b]pyridine]  8.5
12. O=C1Cc2cc(-c3c4nc(C(F)(F)F)ccc4nn3C(F)F)cc(Cl)c2N1 [Example 29, 7-Chloro-5-(2-(difluoromethyl)-5-(trifluoromethyl)-2H-pyrazolo[4,3-b]pyridin-3-yl)indolin-2-one]  8.6
13. O=c1[nH]c2ccc(-c3c4nc(C(F)(F)F)ccc4nn3-c3ccccc3)cc2[nH]1 [Example 9, 5-(2-Phenyl-5-(trifluoromethyl)-2H-pyrazolo[4,3-b]pyridin-3-yl)-1,3-dihydro-2H-benzo[d]imidazol-2-one]  8.8
14. Cc1cc(-c2c3nc(C(F)(F)F)ccc3nn2C(F)F)cc2c1NC(=O)C2 [Example 3, 5-[2-(Difluoromethyl)-5-(trifluoromethyl)pyrazolo[4,3-b]pyridin-3-yl]-7-methyl-indolin-2-one]  9.0
15. FC(F)(F)c1ccc2nn(C3CCC3)c(-c3ccc4[nH]ncc4c3)c2n1 [Example 12, 2-Cyclobutyl-3-(1H-indazol-5-yl)-5-(trifluoromethyl)-2H-pyrazolo[4,3-b]pyridine]  9.2
16. Cc1cc(-c2c3nc(C(F)(F)F)ccc3nn2C(F)F)cc2cn[nH]c12 [Example 30, 2-(Difluoromethyl)-3-(7-methyl-1H-indazol-5-yl)-5-(trifluoromethyl)-2H-pyrazolo[4,3-b]pyridine]  9.2
17. FC(F)n1nc2ccc(C(F)(F)F)nc2c1-c1cc(Cl)c2[nH]ncc2c1 [Example 31, 3-(7-Chloro-1H-indazol-5-yl)-2-(difluoromethyl)-5-(trifluoromethyl)-2H-pyrazolo[4,3-b]pyridine]  9.2
18. Cc1cc(-c2c3nc(C(F)(F)F)ccc3nn2C(C)C)cc2c1NC(=O)C2 [Example 21, 5-(2-Isopropyl-5-(trifluoromethyl)-2H-pyrazolo[4,3-b]pyridin-3-yl)-7-methylindolin-2-one]  9.4
19. CC(C)n1nc2ccc(C(F)F)nc2c1-c1cc(Cl)c2c(c1)CC(=O)N2 [Example 36, 7-Chloro-5-(5-(difluoromethyl)-2-isopropyl-2H-pyrazolo[4,3-b]pyridin-3-yl)indolin-2-one]  9.4
20. CCn1nc2ccc(C(F)(F)F)nc2c1-c1cc(Cl)c2[nH]ncc2c1 [Example 20, 3-(7-Chloro-1H-indazol-5-yl)-2-ethyl-5-(trifluoromethyl)-2H-pyrazolo[4,3-b]pyridine]  9.4
21. Cn1nc2ccc(C(F)(F)F)nc2c1-c1cc(Cl)c2[nH]ncc2c1 [Example 16, 3-(7-Chloro-1H-indazol-5-yl)-2-methyl-5-(trifluoromethyl)-2H-pyrazolo[4,3-b]pyridine]  9.5
22. CC(C)n1nc2ccc(C(F)(F)F)nc2c1-c1cc(Cl)c2c(c1)CC(=O)N2 [Example 22, 7-Chloro-5-(2-isopropyl-5-(trifluoromethyl)-2H-pyrazolo[4,3-b]pyridin-3-yl)indolin-2-one]  9.6
23. Cc1cc(-c2c3nc(C(F)F)cc(C(F)F)c3nn2C(C)C)cc2cn[nH]c12 [Example 40, 5,7-Bis(difluoromethyl)-2-isopropyl-3-(7-methyl-1H-indazol-5-yl)pyrazolo[4,3-b]pyridine]  9.8
24. Cc1cc(-c2c3nc(C(F)(F)F)ccc3nn2C2CCCC2)cc2cn[nH]c12 [Example 8, 2-Cyclopentyl-3-(7-methyl-1H-indazol-5-yl)-5-(trifluoromethyl)-2H-pyrazolo[4,3-b]pyridine]  9.9
25. Cc1cc(-c2c3nc(C(F)F)ccc3nn2C(C)C)cc2cn[nH]c12 [Example 34, 5-(Difluoromethyl)-2-isopropyl-3-(7-methyl-1H-indazol-5-yl)-2H-pyrazolo[4,3-b]pyridine]  10.0
26. CC(C)n1nc2ccc(C(F)(F)F)nc2c1-c1cc(Cl)c2[nH]ncc2c1 [Example 24, 3-(7-Chloro-1H-indazol-5-yl)-2-isopropyl-5-(trifluoromethyl)-2H-pyrazolo[4,3-b]pyridine]  10.2
27. Cc1cc(-c2c3nc(C(F)(F)F)ccc3nn2C2CCC2)cc2c1NC(=O)C2 [Example 25, 5-(2-Cyclobutyl-5-(trifluoromethyl)-2H-pyrazolo[4,3-b]pyridin-3-yl)-7-methylindolin-2-one]  10.3
28. O=C1Cc2cc(-c3c4nc(C(F)(F)F)ccc4nn3C3CCC3)cc(Cl)c2N1 [Example 26, 7-Chloro-5-(2-cyclobutyl-5-(trifluoromethyl)-2H-pyrazolo[4,3-b]pyridin-3-yl)indolin-2-one]  10.5
29. FC(F)(F)c1ccc2nn(C3CCC3)c(-c3cc(Cl)c4[nH]ncc4c3)c2n1 [Example 28, 3-(7-Chloro-1H-indazol-5-yl)-2-cyclobutyl-5-(trifluoromethyl)-2H-pyrazolo[4,3-b]pyridine]  10.7
30. Cc1cc(-c2c3nc(C(F)(F)F)ccc3nn2C2CCC2)cc2cn[nH]c12 [Example 27, 2-Cyclobutyl-3-(7-methyl-1H-indazol-5-yl)-5-(trifluoromethyl)-2H-pyrazolo[4,3-b]pyridine]  10.7

Molecule CCn1nc2ccc(C(F)(F)F)nc2c1-c1cc(C)c2[nH]ncc2c1 [Example 19, 2-Ethyl-3-(7-methyl-1H-indazol-5-yl)-5-(trifluoromethyl)-2H-pyrazolo[4,3-b]pyridine] has an IC50 of 0.794 nM.
